Laboratory results taken from patent US12391686B2, “Compounds and uses thereof” (Foghorn Therapeutics Inc., priority 2019, dated 2025).

Experiments:
[1] = target: T1, Nanoluciferase-BRD9 fusion protein (3×FLAG-NLuc-BRD9) in SYO-1 cells (Homo sapiens, UniProt Q9H8M2); assay: SYO1 BRD9 NanoLuc Degradation Assay; type: cell-based; conditions: 6 hours; SYO-1 cells expressing 3×FLAG-NLuc-BRD9; top dose 1 μM; read-out: SYO1 BRD9-NanoLuc degradation IC50
T1 construct: expressed in transfected cells; host or cells: SYO-1
T1 sequence (Q9H8M2 1-597): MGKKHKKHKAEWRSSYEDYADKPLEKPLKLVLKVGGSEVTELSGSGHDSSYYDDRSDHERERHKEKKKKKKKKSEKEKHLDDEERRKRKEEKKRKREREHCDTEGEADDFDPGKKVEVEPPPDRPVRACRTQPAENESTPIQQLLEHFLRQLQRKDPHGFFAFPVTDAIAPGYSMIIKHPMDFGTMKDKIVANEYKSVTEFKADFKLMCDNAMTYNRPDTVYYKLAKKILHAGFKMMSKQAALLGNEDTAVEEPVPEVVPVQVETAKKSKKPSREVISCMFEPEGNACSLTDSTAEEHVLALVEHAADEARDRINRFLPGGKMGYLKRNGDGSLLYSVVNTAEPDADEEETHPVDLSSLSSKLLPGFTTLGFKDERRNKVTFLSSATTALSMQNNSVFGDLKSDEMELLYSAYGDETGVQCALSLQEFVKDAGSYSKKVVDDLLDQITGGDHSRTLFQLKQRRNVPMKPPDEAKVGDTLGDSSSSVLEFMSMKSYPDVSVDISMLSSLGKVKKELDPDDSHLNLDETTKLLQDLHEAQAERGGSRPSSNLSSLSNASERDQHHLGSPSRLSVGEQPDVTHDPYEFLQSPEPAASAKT
Method in brief: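 Stable 3×FLAG-NLuc-BRD9 SYO-1 line, 8000 cells/well, dosed day 1 with 10-point 3-fold dilutions (1 μM final top, duplicates) for 6 h. NanoLuc bioluminescence read with Nano-Glo; % inhibition relative to DMSO (high) and 1 μM reference BRD9 degrader (low) controls.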

[2] = target: T2, BRD9 bromodomain (Flag-BRD9 P133-K239; Swiss Prot Q9H8M2) (Homo sapiens, UniProt Q9H8M2); assay: BRD9 Bromodomain TR-FRET Competition Binding Assay; conditions: competition with biotinylated BRD9 ligand; 90 minutes at room temperature
T2 construct: His-Flag-BRD9 (P133-K239); Swiss Prot Q9H8M2; His6 with TEV site (mgsshhhhhhenlyfq/) (N, cleaved yes); made in house
T2 sequence (Q9H8M2 133-239): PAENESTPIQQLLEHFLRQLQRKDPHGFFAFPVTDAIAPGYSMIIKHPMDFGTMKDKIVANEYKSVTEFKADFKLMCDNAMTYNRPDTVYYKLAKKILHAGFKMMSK
Protocol: Procedure: His-Flag-BRD9 (P133-K239; Swiss Prot Q9H8M2; SEQ ID NO:1 mgsshhhhhhenlyfq/gdykddddkgslevlfqg/[…] […]) was cloned, expressed, purified, and then treated with TEV protease. Cleaved His tag was removed by purification. The binding of a biotinylated small molecule ligand of BRD9 was assessed via the LANCE® TR-FRET platform (PerkinElmer), and the compounds were assayed for inhibitory activity against this interaction.
Results: A mixture of biotinylated-ligand and SureLight™ Allophycocyanin-Streptavidin (APC-SA, PerkinElmer AD0201) in 50 mM HEPES (pH 7.4), 50 mM NaCl, 1 mM TCEP (pH 7), 0.01% (v/v) Tween-20, 0.01% (w/v) bovine serum albumin was added to a white 384-well PerkinElmer Proxiplate Plus plate. DMSO or 3-fold serially diluted compounds were then added to the Proxiplate followed by addition of Flag-BRD9. After a 10-minute incubation at room temperature, Eu-W1024 anti-FLAG (PerkinElmer, AD0273) was added. The final reaction mixture that contained 3.75 nM biotinylated ligand, 3 nM Flag-BRD9, 7.5 nM SureLight™ Allophycocyanin-Streptavidin, and 0.2 nM Eu-W1024 anti-FLAG was incubated at room temperature for 90 minutes.
The plates were then read on a PerkinElmer Envision plate reader to determine the ratio of emission at 665 nm over 615 nm. […]

| SMILES | DC50 [1] [nM] | IC50 [2] [nM] |
| --- | --- | --- |
| COc1cc(-c2cn(C)c(=O)c3cc(NC(=O)CCOCCOCCNc4ccc5c(c4)C(=O)N(C4CCC(=O)NC4=O)C5=O)ncc23)cc(OC)c1CN(C)C (stereo not shown) [Compound D13, N-(8-[4-[(dimethylamino)methyl]-3,5-dimethoxyphenyl]-6-methyl-5-oxo-2,6-naphthyridin-3-yl)-3-[2-(2-[[2-(2,6-dioxopiperidin-3-yl)-1,3-dioxoisoindol-5-yl]amino]ethoxy)ethoxy]propanamide formic acid] | ≥ 1000 | ≥ 100 |
| COc1cc(-c2cn(C)c(=O)c3cnc(N(C)C)cc23)cc(OC)c1CN1CCC2(CC1)CN(C(=O)CCCCOc1cccc3c1C(=O)N(C1CCC(=O)NC1=O)C3=O)CCO2 (stereo not shown) [Compound D27, 4-((5-(9-(4-(6-(dimethylamino)-2-methyl-1-oxo-1,2-dihydro-2,7-naphthyridin-4-yl)-2,6-dimethoxybenzyl)-1-oxa-4,9-diazaspiro[5.5]undecan-4-yl)-5-oxopentyl)oxy)-2-(2,6-dioxopiperidin-3-yl)isoindoline-1,3-dione formic acid] | < 10 | < 10 |
| COc1cc(-c2cn(C)c(=O)c3cc(NC(=O)CCOCCOCCNc4cccc5c4C(=O)N(C4CCC(=O)NC4=O)C5=O)ncc23)cc(OC)c1CN(C)C (stereo not shown) [Compound D9, N-(8-[4-[(dimethylamino)methyl]-3,5-dimethoxyphenyl]-6-methyl-5-oxo-2,6-naphthyridin-3-yl)-3-[2-(2-[[2-(2,6-dioxopiperidin-3-yl)-1,3-dioxoisoindol-4-yl]amino]ethoxy)ethoxy]propanamide] | ≥ 1000 | ≥ 100 |
| COc1cc(-c2cn(C)c(=O)c3cnc(N(C)CCOCCOCCNc4ccc5c(c4)C(=O)N(C4CCC(=O)NC4=O)C5=O)cc23)cc(OC)c1CN(C)C (stereo not shown) [Compound D22, 5-[10-(5-[4-[(dimethylamino)methyl]-3,5-dimethoxyphenyl]-7-methyl-8-oxo-2,7-naphthyridin-3-yl)-4,7-dioxa-1,10-diazaundecan-1-yl]-2-(2,6-dioxopiperidin-3-yl)isoindole-1,3-dione formic acid] | ≥ 100 | ≥ 10 |
| CNc1cc2c(=O)n(C)cc(-c3cc(OC)c(CN4CC(C(=O)NCCCCCOc5cccc6c5C(=O)N(C5CCC(=O)NC5=O)C6=O)C4)c(OC)c3)c2cn1 (stereo not shown) [Compound D7, 1-([2,6-dimethoxy-4-[2-methyl-7-(methylamino)-1-oxo-2,6-naphthyridin-4-yl]phenyl]methyl)-N-(5-[[2-(2,6-dioxopiperidin-3-yl)-1,3-dioxoisoindol-4-yl]oxy]pentyl)azetidine-3-carboxamide formic acid] | < 10 | < 10 |
| COc1cc(-c2cn(C)c(=O)c3cnc(NCCCCCCCCNC(=O)COc4cccc5c4C(=O)N(C4CCC(=O)NC4=O)C5=O)cc23)cc(OC)c1CN(C)C (stereo not shown) [Compound D5, N-[8-[(5-[4-[(dimethylamino)methyl]-3,5-dimethoxyphenyl]-7-methyl-8-oxo-2,7-naphthyridin-3-yl)amino]octyl]-2-[[2-(2,6-dioxopiperidin-3-yl)-1,3-dioxoisoindol-4-yl]oxy]acetamide formic acid] | ≥ 100 | ≥ 10 |
| COc1cc(-c2cn(C)c(=O)c3cc(N(C)CC(=O)NCCCCCOc4cccc5c4C(=O)N(C4CCC(=O)NC4=O)C5=O)ncc23)cc(OC)c1CN(C)C (stereo not shown) [Compound D12, 2-[(8-[4-[(dimethylamino)methyl]-3,5-dimethoxyphenyl]-6-methyl-5-oxo-2,6-naphthyridin-3-yl)(methyl)amino]-N-(5-[[2-(2,6-dioxopiperidin-3-yl)-1,3-dioxoisoindol-4-yl]oxy]pentyl)acetamide formic acid] | ≥ 10 | < 10 |
| COc1cc(-c2cn(C)c(=O)c3cnc(NCCOCCOCCNc4cccc5c4C(=O)N(C4CCC(=O)NC4=O)C5=O)cc23)cc(OC)c1CN(C)C (stereo not shown) [Compound D10, 4-[[2-(2-[2-[(5-[4-[(dimethylamino)methyl]-3,5-dimethoxyphenyl]-7-methyl-8-oxo-2,7-naphthyridin-3-yl)amino]ethoxy]ethoxy)ethyl]amino]-2-(2,6-dioxopiperidin-3-yl)isoindole-1,3-dione formic acid] | ≥ 10 | ≥ 10 |
| COc1cc(-c2cn(C)c(=O)c3cnc(N(C)CCOCCOCCNc4cccc5c4C(=O)N(C4CCC(=O)NC4=O)C5=O)cc23)cc(OC)c1CN(C)C (stereo not shown) [Compound D31, 4-[10-(5-[4-[(dimethylamino)methyl]-3,5-dimethoxyphenyl]-7-methyl-8-oxo-2,7-naphthyridin-3-yl)-4,7-dioxa-1,10-diazaundecan-1-yl]-2-(2,6-dioxopiperidin-3-yl)isoindole-1,3-dione] | ≥ 100 | ≥ 10 |
| COc1cc(-c2cn(C)c(=O)c3cnc(N(C)C)cc23)cc(OC)c1CN1CC[C@H]1CN(C)Cc1cccc2c1C(=O)N(C1CCC(=O)NC1=O)C2=O (stereo partly drawn) [Compound D2, 4-(((((S)-1-(4-(6-(dimethylamino)-2-methyl-1-oxo-1,2-dihydro-2,7-naphthyridin-4-yl)-2,6-dimethoxybenzyl)azetidin-2-yl)methyl)(methyl)amino)methyl)-2-(2,6-dioxopiperidin-3-yl)isoindoline-1,3-dione] | ≥ 100 | < 10 |
| CNc1cc2c(=O)n(C)cc(-c3cc(OC)c(CN4CCN(C(=O)CCCOc5cccc6c5C(=O)N(C5CCC(=O)NC5=O)C6=O)CC4)c(OC)c3)c2cn1 (stereo not shown) [Compound D17, 4-(4-(4-(2,6-dimethoxy-4-(2-methyl-7-(methylamino)-1-oxo-1,2-dihydro-2,6-naphthyridin-4-yl)benzyl)piperazin-1-yl)-4-oxobutoxy)-2-(2,6-dioxopiperidin-3-yl)isoindoline-1,3-dione formic acid] | < 10 | ≥ 10 |
| COc1cc(-c2cn(C)c(=O)c3cc(NCCCCCOc4cccc5c4C(=O)N(C4CCC(=O)NC4=O)C5=O)ncc23)c(OC)cc1CN(C)C (stereo not shown) [Compound D25, 4-((5-((8-(4-((dimethylamino)methyl)-2,5-dimethoxyphenyl)-6-methyl-5-oxo-5,6-dihydro-2,6-naphthyridin-3-yl)amino)pentyl)oxy)-2-(2,6-dioxopiperidin-3-yl)isoindoline-1,3-dione] | ≥ 100 | ≥ 1000 |
| CNc1cc2c(=O)n(C)cc(-c3cc(OC)c(CN4CCC5(CC4)CN(C(=O)CCCCOc4cccc6c4C(=O)N(C4CCC(=O)NC4=O)C6=O)CCO5)c(OC)c3)c2cn1 (stereo not shown) [Compound D15, 4-([5-[9-([2,6-dimethoxy-4-[2-methyl-7-(methylamino)-1-oxo-2,6-naphthyridin-4-yl]phenyl]methyl)-1-oxa-4,9-diazaspiro[5.5]undecan-4-yl]-5-oxopentyl]oxy)-2-(2,6-dioxopiperidin-3-yl)isoindole-1,3-dione formic acid] | < 10 | < 10 |
| COc1cc(-c2cn(C)c(=O)c3cnc(N(C)C)cc23)cc(OC)c1CN1CCC2(CC1)CN(C(=O)CCCCOc1ccc3c(c1)C(=O)N(C1CCC(=O)NC1=O)C3=O)CCO2 (stereo not shown) [Compound D19, 5-((5-(9-(4-(6-(dimethylamino)-2-methyl-1-oxo-1,2-dihydro-2,7-naphthyridin-4-yl)-2,6-dimethoxybenzyl)-1-oxa-4,9-diazaspiro[5.5]undecan-4-yl)-5-oxopentyl)oxy)-2-(2,6-dioxopiperidin-3-yl)isoindoline-1,3-dione formic acid] | < 10 | < 10 |
